Data published in PMC12566723, “Boronic Derivatives of Thiosemicarbazones as Tyrosinase Inhibitors” (Pharmaceutics, 2025).
Structures can show the parent of a compound that is named as a salt.

Legend:
SK-MEL-3 = assay: Antiproliferative activity by sulforhodamine B assay, SK-MEL-3; type: cell-based; conditions: SRB; for inhibition at 100 µM: SK-MEL3, read-out: proliferation inhibition at 100µM (reported if IC50 > 100 µM), SK-MEL-3, 100 µM, 72 h; for IC50: SK-MEL-3, 72 h
Method: (§1) Cell lines. The Hs-294T (HTB-140), MCF-10A, and SK-MEL-3 (HTB-69) cell lines were purchased from the American Type Culture Collection (ATCC; Rockville, MD, USA). The KU-19-19 was purchased from Leibniz Institute DSMZ-German Collection of Microorganisms and Cell Cultures GmbH (Braunschweig, Germany). Hs-294T, SK-MEL-3, and KU-19-19 (ACC 395) cell lines were cultured in Dulbecco’s Modified Eagle Medium (DMEM; Biowest, Nuaille, France) supplemented with 10% (v/v) fetal bovine serum (FBS; GE Healthcare HyClone, Logan, UT, USA), 2 mM L-glutamine (Sigma-Aldrich, Poznań, Poland). The MCF-10A cell line was cultured in Ham’s F12 medium with glutamine (Corning Costar, Warsaw, Poland) supplemented with 5% (v/v) FBS, 5% (v/v) horse serum, 10 µg/mL insulin, 0.05 µg/mL cholera toxin, 0.5 µg/mL hydrocortisone, and 20 ng/mL hEGF (all from Sigma-Aldrich). All culture media contained 100 µg/mL streptomycin (Sigma-Aldrich) and 100 U/mL penicillin (PolfaTarchomin SA, Warsaw, Poland). The cell lines were tested for mycoplasma contamination using Venor GeM Classic (Minerva Biolabs, Berlin, Germany) with negative results in all cases. Cell lines were cultured in a humidified atmosphere at 37 °C with 5% (v/v) CO2 and passaged twice a week using ethylenediaminetetraacetic acid (EDTA)-Trypsin solution (pH 8; HIIET, Wroclaw, Poland) as a detachment agent.
(§2) Antiproliferative activity assessment by sulforhodamine B assay. The cells were seeded on 384-well plates (Greiner Bio One, Kremsmünster, Austria) at a density of 1 × 10^3 cells/well and, after overnight attachment, were exposed to compounds at various concentrations (at least eight concentrations). After 72 h, the sulforhodamine B (SRB) assay based on Skehan et al. was performed with minor modifications. Briefly, cell were fixed with 20% (w/v) trichloroacetic acid (Avantor Performance Materials, Gliwice, Poland) for 1 h, washed several times with tap water, and stained with 20 µL of 0.1% (w/v) solution of sulforhodamine B (Sigma-Aldrich, Poznan, Poland) in 1% (v/v) acetic acid (Avantor Performance Materials, Gliwice, Poland). After 30 min of incubation at room temperature, the unbound dye was washed out with 1% (v/v) acetic acid, whereas the bound dye was solubilized with 70 µL of a 10 mM unbuffered tris(hydroxymethyl)aminomethane (TRIS; Avantor Performance Materials, Gliwice, Poland) solution. The entire procedure was performed using Biotek EL-406 washing station (BioTek Instruments, Winooski, VT, USA). Absorbance was read using a Biotek Hybrid H4 reader (BioTek Instruments, Winooski, VT, USA) at 540 nm wavelength. Proliferation inhibition (%Inh) was calculated using the following formula: %Inh = [((A_p − A_m)/(A_k − A_m)) × 100] − 100, where Am—absorbance of cell-free medium (blank), Ak—absorbance for vehicle-treated cells (control), Ap—absorbance for compound-treated cells. […] 10.5.0 (GraphPad Software Inc., San Diego, CA, USA) using the [inhibitor] vs. response—variable slope (four parameters) Hill’s equation, based on at least three biological, independent repeats.

Hs-294T = assay: Antiproliferative activity by sulforhodamine B assay, Hs-294T; type: cell-based; conditions: for inhibition at 100 µM: read-out: proliferation inhibition at 100µM (reported if IC50 > 100 µM), 100 µM, 72 h, SRB; for IC50: 72 h, SRB
Method: as §1, §2

KU-19-19 = assay: Antiproliferative activity by sulforhodamine B assay, KU-19-19; type: cell-based; conditions: SRB; for inhibition at 100 µM: read-out: proliferation inhibition at 100µM (reported if IC50 > 100 µM), KU-19-19, 100 µM, 72 h; for IC50: KU-19-19, 72 h
Method: as §1, §2

MCF-10A = assay: Antiproliferative activity by sulforhodamine B assay, MCF-10A; type: cell-based; conditions: for inhibition at 100 µM: read-out: proliferation inhibition at 100µM (reported if IC50 > 100 µM), 100 µM, 72 h, SRB; for IC50: 72 h, SRB
Method: as §1, §2

mushroom tyrosinase = mushroom tyrosinase (Agaricus bisporus, UniProt C7FF04); assay: Tyrosinase enzymatic assay (diphenolase activity, L-DOPA substrate, dopachrome at 475 nm); type: biochemical; conditions: para-substituted analogue vs carboxylic acid of ref 30
Sequence of mushroom tyrosinase (C7FF04 2-392): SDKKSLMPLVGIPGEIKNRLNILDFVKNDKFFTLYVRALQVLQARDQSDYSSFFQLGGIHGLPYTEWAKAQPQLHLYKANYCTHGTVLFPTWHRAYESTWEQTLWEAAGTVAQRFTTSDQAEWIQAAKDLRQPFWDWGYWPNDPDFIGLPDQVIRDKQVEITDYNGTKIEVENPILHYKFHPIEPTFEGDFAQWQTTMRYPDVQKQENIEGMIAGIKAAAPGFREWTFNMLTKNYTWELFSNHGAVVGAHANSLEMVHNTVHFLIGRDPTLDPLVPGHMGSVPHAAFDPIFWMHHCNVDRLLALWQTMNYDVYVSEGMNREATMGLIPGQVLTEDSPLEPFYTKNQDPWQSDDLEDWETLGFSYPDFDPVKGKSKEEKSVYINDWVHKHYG
Sequence of mushroom tyrosinase (G1K3P4 1-150 partner): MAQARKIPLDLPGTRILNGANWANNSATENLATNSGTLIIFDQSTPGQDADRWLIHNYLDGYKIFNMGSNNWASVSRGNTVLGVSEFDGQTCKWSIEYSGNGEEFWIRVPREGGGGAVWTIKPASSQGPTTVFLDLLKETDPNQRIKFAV

[1] = test system: SK-MEL-3, Hs294T, KU-19-19, MCF-10A cell lines; assay: Antiproliferative activity by sulforhodamine B assay, statements across the cell line panel; type: cell-based; conditions: for antiproliferative effects in words: up to a concentration of 100 µM; for IC50 in SK-MEL-3 relative to the Hs294T cell line: SK-MEL-3 vs Hs294T, fold higher
Method: as §1, §2
In view of the results obtained from studies on the inhibitory activity of boronate derivatives of thiosemicarbazones against tyrosinase, we decided to test their ability to inhibit the growth and proliferation of tumor lines that overexpress tyrosinase. For this purpose, we tested antiproliferative activity on selected cell lines. Initial antiproliferative screening was conducted using a tissue-agnostic approach on a select panel of cell lines. […]

## NC(=S)NN=Cc1cccc(B(O)O)c1 [Compound 2]
SK-MEL-3; Homo sapiens
  inhibition at 100 µM: 50.7%
Hs-294T; Homo sapiens
  inhibition at 100 µM: 37.6%
KU-19-19; Homo sapiens
  inhibition at 100 µM: 11.3%
MCF-10A; Homo sapiens
  inhibition at 100 µM: 30.7%

## C/C(=N\NC(N)=S)c1ccc(B(O)O)cc1 [Compound 6]
Mushroom tyrosinase
  IC50 against tyrosinase compared with the corresponding carboxylic acid: four times lower
SK-MEL-3; Homo sapiens
  inhibition at 100 µM: 37.3%
Hs-294T; Homo sapiens
  inhibition at 100 µM: 13.9%
KU-19-19; Homo sapiens
  inhibition at 100 µM: 9.5%
MCF-10A; Homo sapiens
  inhibition at 100 µM: 32.8%
[1]
  antiproliferative effects in words: minimal antiproliferative effects

## COc1cccc2c1C(=O)c1c(O)c3c(c(O)c1C2=O)C[C@@](O)(C(=O)CO)C[C@@H]3O[C@H]1C[C@H](N)[C@H](O)[C@H](C)O1 [Doxo, Doxorubicin hydrochloride, reference compound]
SK-MEL-3; Homo sapiens, SK-MEL3
  IC50: 0.016 µM
Hs-294T; Homo sapiens
  IC50: 0.0011 µM
KU-19-19; Homo sapiens
  IC50: 0.0016 µM
MCF-10A; Homo sapiens
  IC50: 0.00051 µM
[1]
  IC50 in SK-MEL-3 relative to the Hs294T cell line: 14.5 fold

## C/C(=N\NC(N)=S)c1cccc(B(O)O)c1 [Compound 5]
SK-MEL-3; Homo sapiens, SK-MEL3
  IC50: 56.1 µM
Hs-294T; Homo sapiens
  inhibition at 100 µM: 35.9%
KU-19-19; Homo sapiens
  inhibition at 100 µM: 26.8%
MCF-10A; Homo sapiens
  inhibition at 100 µM: 37.1%

## CC1=NN(C(N)=S)B(O)c2ccccc21 [Compound 4]
SK-MEL-3; Homo sapiens, SK-MEL3
  IC50: 68.5 µM
Hs-294T; Homo sapiens
  IC50: 79.4 µM
KU-19-19; Homo sapiens
  IC50: 69 µM
MCF-10A; Homo sapiens
  IC50: 55 µM
[1]; all four cell lines, 72 h, SRB, read-out: IC50 values, range over the tested cell lines
  IC50: 55 to 79.4 µM

## NC(=S)N1N=Cc2ccccc2B1O [Compound 1]
SK-MEL-3; Homo sapiens
  inhibition at 100 µM: 43.4%
Hs-294T; Homo sapiens
  inhibition at 100 µM: 55.4%
KU-19-19; Homo sapiens
  inhibition at 100 µM: 21.4%
MCF-10A; Homo sapiens
  inhibition at 100 µM: 42.7%

## [NH2][Pt]([NH2])([Cl])[Cl] [CDDP, Cisplatin, reference compound]
SK-MEL-3
  IC50: 15 µM
Hs-294T
  IC50: 2.17 µM
KU-19-19
  IC50: 4.46 µM
MCF-10A
  IC50: 3.03 µM
[1]
  IC50 in SK-MEL-3 relative to the Hs294T cell line: 6.9 fold

## NC(=S)N/N=C/c1ccc(B(O)O)cc1 [Compound 3]
SK-MEL-3; Homo sapiens
  inhibition at 100 µM: 31.8%
Hs-294T; Homo sapiens
  inhibition at 100 µM: 13.9%
KU-19-19; Homo sapiens
  inhibition at 100 µM: 5.4%
MCF-10A; Homo sapiens
  inhibition at 100 µM: 31.7%
[1]
  antiproliferative effects in words: minimal antiproliferative effects
